Test results as given in patent US20080255192A1, “Methods and Compositions for Selectin Inhibition” (Wyeth, priority 2007, published 2008).

Target: T1, P-selectin/PSGL-1 interaction (Homo sapiens, UniProt P16109)
T1 construct: comprised of the lectin and epidermal growth factor-like (EGF) domains expressed in CHO cells; made in house; host or cells: CHO cells (P-LE)
T1 sequence (P16109 42-198): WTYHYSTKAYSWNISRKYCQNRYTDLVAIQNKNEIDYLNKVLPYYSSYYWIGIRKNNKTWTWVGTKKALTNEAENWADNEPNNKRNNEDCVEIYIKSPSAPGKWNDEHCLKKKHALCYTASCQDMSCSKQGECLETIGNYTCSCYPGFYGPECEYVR
Assay: Biacore P-Selectin/PSGL-1 Inhibition Assay (surface plasmon resonance)
Assay type: binding
Details: 250 uM test compound, 500 nM P.LE, immobilized PSGL-1 19ek, 10% DMSO, pH 7.4
Method: Surface plasmon resonance assays were performed on a Biacore 3000 instrument (Biacore Inc. Piscataway, N.J.) at 25° C. at a flow rate of 30 μL/minute and each assay consisted of a 60-second equilibration, a 60-μL sample injection (kinject), and a 300-second dissociation.
A purified, monomeric, truncated form of human PSGL-1, “19ek”, that contained all the necessary P-selectin binding determinants (see Goetz, et al., J. Cell Biol., 1997, 137: 509-519; and Sako, et al., Cell, 1995, 83: 323-331) was biotinylated via amine chemistry (Sulfo-NHS-LC-Biotin, Peirce) at a unique C-terminal lysine residue (see Somers, et al., Cell, 2000, 103: 467-479) and immobilized on a Biacore SA sensor chip (Biacore Inc.), using an HBS-EP buffer (Biacore Inc.), and the target 600-700 RU. The coated chip was re-equilibrated with an HBS-P buffer (Biacore Inc.) to which 1 mM CaCl2 and 1 mM MgCl2 (both from Fisher) were added to ensure sufficient calcium for the calcium-dependent interaction between the receptor and the ligand.
Test compounds were incubated for 1 hour in a 1.1× Biacore assay buffer. Each solution was centrifuged through a 0.2 µm filter, using a 96-well plate format (Millipore). Glycyrrhizin tri-sodium salt (TCI) was prepared as a positive control in parallel with the test compounds, in the same manner described above.
A soluble recombinant truncated form of human P-selectin, P-LE, comprised of the lectin and epidermal growth factor-like (EGF) domains expressed in CHO cells (see Somers, et al., Cell, 2000, 103: 467-479) was added to each filtered test compound solution. Final concentrations of reagents were 500 nM P.LE, 250 or 500 μM test compound (depending on structure) or 1 mM glycyrrhizin, 10% DMSO, and 1× Biacore buffer ([…], 150 mM NaCl, 1 mM CaCl2, and 1 mM MgCl2 (all reagents from Fisher)), with a pH of 7.4. Compounds active at 250 μM were titrated to further define activity. Test samples were supplied to the Biacore instrument in a 96-well plate.
The Biacore raw data file was exported as a text file to an Excel spreadsheet, where the buffer blanks bracketing the samples were averaged for each Biacore instrument flow cell (Fc), and subtracted from the averaged uninhibited P.LE samples and from all the other samples. The reference signal from Fcl (uncoated) was then subtracted from its corresponding active (coated) signal for each injection, a process known as double referencing (see Myszka, J. Mol. Recognit., 1999, 12(5): 279-284). The percent inhibition of binding was calculated by dividing the reference-subtracted inhibited signal by the reference-subtracted uninhibited signal, subtracting this value from 1, and multiplying the resulting value by 100. The replicate percent inhibition values were averaged and expressed as the mean ±standard deviation. The inter-experiment standard deviation of calculated percent inhibitions in the Biacore assay was ±5.

| Compound | inhibition at 250 µM [%] |
| --- | --- |
| CCC(c1ccccc1)c1nc2c(C(F)(F)F)cccc2c(C(=O)O)c1O (stereo not shown) [Compound 126, 3-Hydroxy-2-(1-phenylpropyl)-8-(trifluoromethyl)quinoline-4-carboxylic acid] | 61 |
| O=C(O)c1c(O)c(C2(c3ccccc3C(F)(F)F)CC2)nc2c(C(F)(F)F)cccc12 [Compound 63, 3-hydroxy-8-(trifluoromethyl)-2-(1-(2-(trifluoromethyl)phenyl)cyclopropyl)quinoline-4-carboxylic acid] | 17 |
| O=C(O)c1c(O)c(C2(c3ccc(C(F)(F)F)cc3)CC2)nc2ccc(OC(F)(F)F)cc12 [Compound 90, 3-hydroxy-6-(trifluoromethoxy)-2-(1-(4-(trifluoromethyl)phenyl)cyclopropyl)quinoline-4-carboxylic acid] | 47 |
| Cc1cccc2c(C(=O)O)c(O)c(C3(c4ccccc4)CC3)nc12 [Compound 31, 3-hydroxy-8-methyl-2-(1-phenylcyclopropyl)quinoline-4-carboxylic acid] | ≤ 10 |
| CC(C)(c1ccc(Cl)cc1)c1nc2c3c(ccc2c(C(=O)O)c1O)CCCC3 [Compound 120, 2-(2-(4-Chlorophenyl)propan-2-yl)-3-hydroxy-7,8,9,10-tetrahydrobenzo[h]quinoline-4-carboxylic acid] | ≤ 10 |
| Cc1ccc2c(C(=O)O)c(O)c(C3(c4ccccc4)CC3)nc2c1C [Compound 43, 3-hydroxy-7,8-dimethyl-2-(1-phenylcyclopropyl)quinoline-4-carboxylic acid] | 18 |
| O=C(O)c1c(O)c(C2(c3ccc(F)cc3)CC2)nc2ccc(Br)cc12 [Compound 72, 6-bromo-2-(1-(4-fluorophenyl)cyclopropyl)-3-hydroxyquinoline-4-carboxylic acid] | 12 |
| CC(C)c1cccc2c(C(=O)O)c(O)c(C(c3ccccc3)C(C)C)nc12 (stereo not shown) [Compound 130, 3-Hydroxy-8-isopropyl-2-(2-methyl-1-phenylpropyl)quinoline-4-carboxylic acid] | 40 |
| O=C(O)c1c(O)c(C2(c3ccc(F)cc3)CC2)nc2c(-c3ccccc3)cccc12 [Compound 77] | 37 |
| CC(Cc1nc2c(C(F)(F)F)cccc2c(C(=O)O)c1O)c1ccccc1 (stereo not shown) [Compound 135, 3-Hydroxy-2-(2-phenylpropyl)-8-(trifluoromethyl)quinoline-4-carboxylic acid] | 46 |
| Cc1ccc2c(C(=O)O)c(O)c(CC(C)c3ccccc3)nc2c1C (stereo not shown) [Compound 137, 3-Hydroxy-7,8-dimethyl-2-(2-phenylpropyl)quinoline-4-carboxylic acid] | 31 |
| Cc1ccc(C2(c3nc4c(C)cccc4c(C(=O)O)c3O)CC2)cc1 [Compound 83, 8-methyl-2-(1-p-tolylcyclopropyl)-3-hydroxyquinoline-4-carboxylic acid] | 12 |
| CC(C)(c1ccccc1)c1nc2c(C(F)(F)F)cccc2c(C(=O)O)c1O [Compound 117, 3-hydroxy-2-(2-phenylpropan-2-yl)-8-(trifluoromethyl)quinoline-4-carboxylic acid] | 55 |
| CC(C)(c1ccc(Cl)cc1)c1nc2c(C(F)(F)F)cccc2c(C(=O)O)c1O [Compound 119, 2-(2-(4-Chlorophenyl)propan-2-yl)-3-hydroxy-8-(trifluoromethyl)quinoline-4-carboxylic acid] | ≤ 10 |
| CCc1cccc2c(C(=O)O)c(O)c(C3(c4ccc(F)cc4)CC3)nc12 [Compound 65, 8-ethyl-2-(1-(4-fluorophenyl)cyclopropyl)-3-hydroxyquinoline-4-carboxylic acid] | 31 |

Now from value to compound:

| inhibition at 250 µM [%] | Compound |
| --- | --- |
| 61 | CCc1cccc2c(C(=O)O)c(O)c(C3(c4ccc(C(F)(F)F)cc4)CC3)nc12 [Compound 87, 8-ethyl-3-hydroxy-2-(1-(4-(trifluoromethyl)phenyl)cyclopropyl)quinoline-4-carboxylic acid] |
| 40 | CCc1cc(C(F)(F)F)c2nc(C3(c4ccccc4)CC3)c(O)c(C(=O)O)c2c1 [Compound 104, 6-ethyl-3-hydroxy-2-(1-phenylcyclopropyl)-8-(trifluoromethyl)quinoline-4-carboxylic acid] |
| 10 | CCc1ccc2c(C(=O)O)c(O)c(C3(c4ccc(C(F)(F)F)cc4)CC3)nc2c1 [Compound 89, 7-ethyl-3-hydroxy-2-(1-(4-(trifluoromethyl)phenyl)cyclopropyl)quinoline-4-carboxylic acid] |
| ≤ 10 | O=C(O)c1c(O)c(C2(c3ccc(Cl)cc3)CC2)nc2c(C(F)(F)F)cc(Cl)cc12 [Compound 95, 6-chloro-2-(1-(4-chlorophenyl)cyclopropyl)-3-hydroxy-8-(trifluoromethyl)quinoline-4-carboxylic acid] |
| 26 | O=C(O)c1c(O)c(C2(c3ccc(Cl)cc3)CC2)nc2ccc(Cl)cc12 [Compound 22, 6-chloro-2-(1-(4-chlorophenyl)cyclopropyl)-3-hydroxyquinoline-4-carboxylic acid] |
| 67 | O=C(O)c1c(O)c(C2(c3ccc(Cl)cc3)CC2)nc2c3c(ccc12)CCCC3 [Compound 36, 2-(1-(4-chlorophenyl)cyclopropyl)-3-hydroxy-7,8,9,10-tetrahydrobenzo[h]quinoline-4-carboxylic acid] |
| 66 | O=C(O)c1c(O)c(C2(c3cccc(Cl)c3)CC2)nc2c(C(F)(F)F)cccc12 [Compound 54, 2-(1-(3-chlorophenyl)cyclopropyl)-3-hydroxy-8-(trifluoromethyl)quinoline-4-carboxylic acid] |
| 57 | O=C(O)c1c(O)c(C2(c3ccccc3Cl)CC2)nc2c(C(F)(F)F)cccc12 [Compound 55, 2-(1-(2-chlorophenyl)cyclopropyl)-3-hydroxy-8-(trifluoromethyl)quinoline-4-carboxylic acid] |
| ≤ 10 | O=C(O)c1c(O)c(C2(c3ccc(F)cc3)CC2)nc2ccc(Cl)cc12 [Compound 67, 6-chloro-2-(1-(4-fluorophenyl)cyclopropyl)-3-hydroxyquinoline-4-carboxylic acid] |
| 28 | O=C(O)c1c(O)c(C2(c3ccc(Cl)cc3)CC2)nc2ccc(OC(F)(F)F)cc12 [Compound 21, 2-(1-(4-chlorophenyl)cyclopropyl)-3-hydroxy-6-(trifluoromethoxy)quinoline-4-carboxylic acid] |
| ≤ 10 | CCc1cc(C(F)(F)F)cc2c(C(=O)O)c(O)c(C3(c4ccc(Cl)cc4)CC3)nc12 [Compound 99, 2-(1-(4-chlorophenyl)cyclopropyl)-8-ethyl-3-hydroxy-6-(trifluoromethyl)quinoline-4-carboxylic acid] |
| 47 | O=C(O)c1c(O)c(C2(c3ccc(C(F)(F)F)cc3)CC2)nc2c(C(F)(F)F)cccc12 [Compound 52, 3-hydroxy-8-(trifluoromethyl)-2-(1-(4-(trifluoromethyl)phenyl)cyclopropyl)quinoline-4-carboxylic acid] |
| ≤ 10 | O=C(O)c1c(O)c(C2(c3ccsc3)CC2)nc2c(C(F)(F)F)cccc12 [Compound 59, 3-hydroxy-2-(1-(thiophen-3-yl)cyclopropyl)-8-(trifluoromethyl)quinoline-4-carboxylic acid] |
| 12 | O=C(O)c1c(O)c(C2(c3ccc(Cl)cc3)CC2)nc2c(C(=O)O)cccc12 [Compound 108, 2-(1-(4-chlorophenyl)cyclopropyl)-3-hydroxyquinoline-4,8-dicarboxylic acid] |
| 37 | O=C(O)c1c(O)c(C2(c3ccc(Cl)cc3)CC2)nc2c(OC(F)(F)F)cccc12 [Compound 1, 2-(1-(4-chlorophenyl)cyclopropyl)-3-hydroxy-8-(trifluoromethoxy)quinoline-4-carboxylic acid] |
| ≤ 10 | O=C(O)c1c(O)c(C2(c3ccccc3)CC2)nc2ccc(C(F)(F)F)cc12 [Compound 32, 3-hydroxy-2-(1-phenylcyclopropyl)-6-(trifluoromethyl)quinoline-4-carboxylic acid] |
